Test results reported in patent US8106055B2, “Substituted amide compounds” (Gruenenthal GmbH, priority 2007, dated 2012).

Experiments:
human μ opiate receptor = biological target: T1, human μ opiate receptor (Homo sapiens, UniProt P35372); test: Affinity for the human μ opiate receptor ([3H]-naloxone displacement, CHO-K1 receptor membrane preparation, SPA); assay type: binding; conditions: test concentration of 1 μM; read-out: μ (binding on the μ opioid receptor, % inhibition)
T1 construct: purchased PerkinElmer Life Sciences, Zaventem, Belgium RB-HOM; host or cells: CHO-K1 cells (membrane preparation)
T1 sequence (P35372 whole entry): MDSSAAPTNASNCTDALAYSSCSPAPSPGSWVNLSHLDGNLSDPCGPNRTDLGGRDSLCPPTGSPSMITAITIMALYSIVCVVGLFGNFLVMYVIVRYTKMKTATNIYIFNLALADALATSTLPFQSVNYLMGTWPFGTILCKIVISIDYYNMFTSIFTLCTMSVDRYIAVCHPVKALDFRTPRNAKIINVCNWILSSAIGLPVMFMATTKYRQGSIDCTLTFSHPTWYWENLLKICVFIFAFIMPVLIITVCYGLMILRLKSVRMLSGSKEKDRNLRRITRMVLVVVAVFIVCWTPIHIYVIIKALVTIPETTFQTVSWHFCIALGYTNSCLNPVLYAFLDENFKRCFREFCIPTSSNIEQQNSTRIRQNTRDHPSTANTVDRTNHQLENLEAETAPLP
Outline: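 Displacement of 1 nmol/l [3H]-naloxone measured by SPA counting after 90 min at room temperature, using human μ receptor CHO-K1 membrane preparation in Tris-HCl buffer with 0.06% BSA. Test substances at 1 μmol/l give % inhibition; dilution series yield IC50, then Ki (Cheng-Prusoff); non-specific binding with 100 μmol/l naloxone.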

[1] = biological target: T2, serotonin (5-HT) reuptake (Rattus norvegicus, UniProt P31652); test: Inhibition of serotonin (5HT) reuptake in synaptosomes from rat brain; assay type: biochemical; conditions: test concentration of 10 μM; read-out: 5-HT (inhibition of reuptake of serotonin, % inhibition)
T2 construct: synaptosomes are freshly isolated from areas of the rat brain; from tissue; host or cells: rat brain synaptosomes (P2 fraction)
T2 sequence (P31652 whole entry): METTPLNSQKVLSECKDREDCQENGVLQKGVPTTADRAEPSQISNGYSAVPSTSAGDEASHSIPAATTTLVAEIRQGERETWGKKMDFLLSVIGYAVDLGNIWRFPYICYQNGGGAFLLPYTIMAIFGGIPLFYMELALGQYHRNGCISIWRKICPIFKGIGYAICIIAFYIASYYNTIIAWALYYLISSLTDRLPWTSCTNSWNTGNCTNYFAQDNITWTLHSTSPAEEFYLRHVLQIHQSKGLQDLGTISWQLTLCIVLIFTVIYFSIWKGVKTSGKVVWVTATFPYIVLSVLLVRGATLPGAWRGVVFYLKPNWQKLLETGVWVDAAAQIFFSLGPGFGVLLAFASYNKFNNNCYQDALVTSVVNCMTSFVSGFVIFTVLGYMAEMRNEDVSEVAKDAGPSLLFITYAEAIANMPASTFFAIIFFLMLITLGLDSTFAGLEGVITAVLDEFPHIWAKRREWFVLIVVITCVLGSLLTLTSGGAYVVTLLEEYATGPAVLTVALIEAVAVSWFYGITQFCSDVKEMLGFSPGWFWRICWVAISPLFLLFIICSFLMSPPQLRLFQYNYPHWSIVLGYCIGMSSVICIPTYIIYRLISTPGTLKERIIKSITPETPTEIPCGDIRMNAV
Outline: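 Compounds screened at 10 μM and reported as percent inhibition of serotonin uptake. Uptake measured in a freshly prepared P2 synaptosomal fraction from rat brain.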

Work on `CN(C)C(c1cccs1)C1CCC(CCNC(=O)COC2CCN(S(=O)(=O)c3ccc(F)cc3)C2)CC1` (centres unmarked) [Example 138, N-(2-(4-((dimethylamino)(thiophen-2-yl)methyl)cyclohexyl)ethyl)-2-(1-(4-fluorophenylsulfonyl)pyrrolidin-3-yloxy)acetamide] yielded an inhibition at 1 µM (human μ opiate receptor) of 87% and an inhibition at 10 µM [1] of 98%.
`CN(C)C(c1cccc(F)c1)C1CCC(NC(=O)COC2CCN(S(=O)(=O)c3cccc(C(F)(F)F)c3)C2)CC1` (centres unmarked) [Example 139, N-(4-((dimethylamino)(3-fluorophenyl)methyl)cyclohexyl)-2-(1-(3-(trifluoromethyl)phenylsulfonyl)pyrrolidin-3-yloxy)acetamide] was tested, and the inhibition at 1 µM (human μ opiate receptor) was 83% and the inhibition at 10 µM [1] was 79%.
`Cc1cc(C)c(S(=O)(=O)N2CCC(OCC(=O)NC3CCC(C(c4cccc(F)c4)N(C)C)CC3)C2)c(C)c1` (centres unmarked) [Example 140, N-(4-((dimethylamino)(3-fluorophenyl)methyl)cyclohexyl)-2-(1-(mesitylsulfonyl)pyrrolidin-3-yloxy)acetamide] was tested, and the inhibition at 1 µM (human μ opiate receptor) was 83% and the inhibition at 10 µM [1] was 72%.
In the case of `Cc1cc(C)c(S(=O)(=O)N2CCC(OCC(=O)NCC3CCC(C(c4cccc(F)c4)N(C)C)CC3)C2)c(C)c1` (centres unmarked) [Example 141, N-((4-((dimethylamino)(3-fluorophenyl)methyl)cyclohexyl)methyl)-2-(1-(mesitylsulfonyl)pyrrolidin-3-yloxy)acetamide], the inhibition at 1 µM (human μ opiate receptor) is reported as 88% and the inhibition at 10 µM [1] is reported as 80%.
With `COc1ccc(S(=O)(=O)N(C)CCOCC(=O)NCC2CCC(C(c3cccs3)N(C)C)CC2)cc1` (centres unmarked) [Example 142, N-((4-((dimethylamino)(thiophen-2-yl)methyl)cyclohexyl)methyl)-2-(2-(4-methoxy-N-methylphenylsulfonamido)ethoxy)acetamide] the inhibition at 1 µM (human μ opiate receptor) was 89% and the inhibition at 10 µM [1] was 70%.
With `COc1cc(C)c(S(=O)(=O)N2CCC(OCC(=O)NCC3CCC(C(c4ccccc4)N(C)C)CC3)CC2)c(C)c1C` (centres unmarked) [Example 143, N-((4-((dimethylamino)(phenyl)methyl)cyclohexyl)methyl)-2-(1-(4-methoxy-2,3,6-trimethylphenylsulfonyl)piperidin-4-yloxy)acetamide] the inhibition at 1 µM (human μ opiate receptor) was 89% and the inhibition at 10 µM [1] was 93%.
With `COc1cc(C)c(S(=O)(=O)N2CCCC(OCC(=O)NC3CCC(C(c4cccs4)N(C)C)CC3)C2)c(C)c1C` (centres unmarked) [Example 144, N-(4-((dimethylamino)(thiophen-2-yl)methyl)cyclohexyl)-2-(1-(4-methoxy-2,3,6-trimethylphenylsulfonyl)piperidin-3-yloxy)acetamide] the inhibition at 1 µM (human μ opiate receptor) was 89% and the inhibition at 10 µM [1] was 87%.
For `COc1cc(C)c(S(=O)(=O)N2CCCC(OCC(=O)NCC3CCC(C(c4cccc(F)c4)N(C)C)CC3)C2)c(C)c1C` (centres unmarked) [Example 145, N-((4-((dimethylamino)(3-fluorophenyl)methyl)cyclohexyl)methyl)-2-(1-(4-methoxy-2,3,6-trimethylphenylsulfonyl)piperidin-3-yloxy)acetamide], the inhibition at 1 µM (human μ opiate receptor) was 87% and the inhibition at 10 µM [1] was 91%.
`COc1cc(C)c(S(=O)(=O)N2CCC(CCOCC(=O)NCC3CCC(C(c4ccccc4)N(C)C)CC3)CC2)c(C)c1C` (centres unmarked) [Example 146, N-((4-((dimethylamino)(phenyl)methyl)cyclohexyl)methyl)-2-(2-(1-(4-methoxy-2,3,6-trimethylphenylsulfonyl)piperidin-4-yl)ethoxy)acetamide] showed an inhibition at 1 µM (human μ opiate receptor) of 88% and an inhibition at 10 µM [1] of 95%.
`CN(C)C(c1cccc(F)c1)C1CCC(CCNC(=O)COCC2CCCCN2S(=O)(=O)c2ccc(Cl)c(Cl)c2)CC1` (centres unmarked) [Example 147, 2-((1-(3,4-dichlorophenylsulfonyl)piperidin-2-yl)methoxy)-N-(2-(4-((dimethylamino)(3-fluorophenyl)methyl)cyclohexyl)ethyl)acetamide] showed an inhibition at 1 µM (human μ opiate receptor) of 90% and an inhibition at 10 µM [1] of 96%.
With `COc1cc(C)c(S(=O)(=O)N(CCOCC(=O)NCC2CCC(C(c3ccccc3)N(C)C)CC2)Cc2ccccc2)c(C)c1` (centres unmarked) [Example 148, 2-(2-(N-benzyl-4-methoxy-2,6-dimethylphenylsulfonamido)ethoxy)-N-((4-((dimethylamino)(phenyl)methyl)cyclohexyl)methyl)acetamide] the inhibition at 1 µM (human μ opiate receptor) was 90% and the inhibition at 10 µM [1] was 95%.
`COc1cc(C)c(S(=O)(=O)N(CCOCC(=O)NCCC2CCC(C(c3cccs3)N(C)C)CC2)Cc2ccccc2)c(C)c1` (centres unmarked) [Example 149, 2-(2-(N-benzyl-4-methoxy-2,6-dimethylphenylsulfonamido)ethoxy)-N-(2-(4-((dimethylamino) (thiophen-2-yl)methyl)cyclohexyl)ethyl)acetamide] showed an inhibition at 1 µM (human μ opiate receptor) of 91% and an inhibition at 10 µM [1] of 91%.
In the case of `COc1ccc(S(=O)(=O)N2CCCCC2COCC(=O)NCC2CCC(C(c3ccccc3)N(C)C)CC2)cc1OC` (centres unmarked) [Example 150, 2-((1-(3,4-Dimethoxyphenylsulfonyl)piperidin-2-yl)methoxy)-N-((4-((dimethylamino)(phenyl)methyl)cyclohexyl)methyl)acetamide], the inhibition at 1 µM (human μ opiate receptor) is reported as 86% and the inhibition at 10 µM [1] is reported as 94%.
With `COc1ccc(S(=O)(=O)N2CCCCC2COCC(=O)NCC2CCC(C(c3cccc(F)c3)N(C)C)CC2)c(OC)c1` (centres unmarked) [Example 151, 2-((1-(2,4-dimethoxyphenylsulfonyl)piperidin-2-yl)methoxy)-N-((4-((dimethylamino)(3-fluorophenyl)methyl)cyclohexyl)methyl)acetamide] the inhibition at 1 µM (human μ opiate receptor) was 90% and the inhibition at 10 µM [1] was 87%.
In the case of `CN(C)C(c1cccs1)C1CCC(NC(=O)COCCN(C)S(=O)(=O)c2cccc(C(F)(F)F)c2)CC1` (centres unmarked) [Example 152, N-(4-((dimethylamino)(thiophen-2-yl)methyl)cyclohexyl)-2-(2-(N-methyl-3-(trifluoromethyl)phenylsulfonamido)ethoxy)acetamide], the inhibition at 1 µM (human μ opiate receptor) is reported as 89% and the inhibition at 10 µM [1] is reported as 87%.
Molecule `COc1ccc(S(=O)(=O)N2CCC(OCC(=O)NC3CCC(C(c4cccs4)N(C)C)CC3)C2)cc1OC` (centres unmarked) [Example 155, 2-(1-(3,4-dimethoxyphenylsulfonyl)pyrrolidin-3-yloxy)-N-(4-((dimethylamino)(thiophen-2-yl)methyl)cyclohexyl)acetamide] has an inhibition at 1 µM (human μ opiate receptor) of 88% and an inhibition at 10 µM [1] of 87%.
`Cc1ccc(S(=O)(=O)N2CCC(OCC(=O)NC3CCC(C(c4cccs4)N(C)C)CC3)C2)cc1` (centres unmarked) [Example 156, N-(4-((dimethylamino)(thiophen-2-yl)methyl)cyclohexyl)-2-(1-tosylpyrrolidin-3-yloxy)acetamide] showed an inhibition at 1 µM (human μ opiate receptor) of 80% and an inhibition at 10 µM [1] of 87%.
For `Cc1ccc(S(=O)(=O)N(C)CCOCC(=O)NCC2CCC(C(c3ccccc3)N(C)C)CC2)cc1` (centres unmarked) [Example 157, N-((4-((dimethylamino) (phenyl)methyl)cyclohexyl)methyl)-2-(2-(N,4-dimethylphenylsulfonamido)ethoxy)acetamide], the inhibition at 1 µM (human μ opiate receptor) was 87% and the inhibition at 10 µM [1] was 88%.
`CN(C)C(c1cccc(F)c1)C1CCC(CNC(=O)COCCN(C)S(=O)(=O)c2ccc(Cl)cc2)CC1` (centres unmarked) [Example 158, 2-(2-(4-chloro-N-methylphenylsulfonamido)ethoxy)-N-((4-((dimethylamino)(3-fluorophenyl)methyl)cyclohexyl)methyl)acetamide] gave an inhibition at 1 µM (human μ opiate receptor) of 87% and an inhibition at 10 µM [1] of 91%.
For `CN(C)C(c1cccs1)C1CCC(NC(=O)COCCN(Cc2ccccc2)S(=O)(=O)c2ccccc2)CC1` (centres unmarked) [Example 161, 2-(2-(N-benzylphenylsulfonamido)ethoxy)-N-(4-((dimethylamino)(thiophen-2-yl)methyl)cyclohexyl)acetamide], the inhibition at 1 µM (human μ opiate receptor) was 86% and the inhibition at 10 µM [1] was 94%.
`COc1ccc(S(=O)(=O)N2CCCC2COCC(=O)NC2CCC(C(c3cccs3)N(C)C)CC2)cc1` (centres unmarked) [Example 162, N-(4-((dimethylamino)(thiophen-2-yl)methyl)cyclohexyl)-2-((1-(4-methoxyphenylsulfonyl)pyrrolidin-2-yl)methoxy)acetamide] showed an inhibition at 1 µM (human μ opiate receptor) of 86% and an inhibition at 10 µM [1] of 81%.
In the case of `COc1ccc(S(=O)(=O)N2Cc3ccccc3CC2COCC(=O)NCC2CCC(C(c3cccc(F)c3)N(C)C)CC2)cc1` (centres unmarked) [Example 163, N-((4-((dimethylamino)(3-fluorophenyl)methyl)cyclohexyl)methyl)-2-((2-(4-methoxyphenylsulfonyl)-1,2,3,4-tetrahydroisoquinolin-3-yl)methoxy)acetamide], the inhibition at 1 µM (human μ opiate receptor) is reported as 87% and the inhibition at 10 µM [1] is reported as 96%.
In the case of `CN(C)C(c1cccc(F)c1)C1CCC(CNC(=O)COC2CCCCC2N(C)S(=O)(=O)c2ccc(Cl)c(Cl)c2)CC1` (centres unmarked) [Example 164, 2-(2-(3,4-dichloro-N-methylphenylsulfonamido)cyclohexyloxy)-N-((4-((dimethylamino)(3-fluorophenyl)methyl)cyclohexyl)methyl)acetamide], the inhibition at 1 µM (human μ opiate receptor) is reported as 86% and the inhibition at 10 µM [1] is reported as 90%.
`COc1cc(C)c(S(=O)(=O)N2CCC(OCC(=O)NC3CCC(C(c4ccccc4)N(C)C)CC3)C2)c(C)c1` (centres unmarked) [Example 165, N-(4-((dimethylamino)(phenyl)methyl)cyclohexyl)-2-(1-(4-methoxy-2,6-dimethylphenylsulfonyl)pyrrolidin-3-yloxy)acetamide] showed an inhibition at 1 µM (human μ opiate receptor) of 87% and an inhibition at 10 µM [1] of 20%.
`Cc1ccc(S(=O)(=O)N2CCC(OCC(=O)NC3CCC(C(c4cccc(F)c4)N(C)C)CC3)C2)cc1` (centres unmarked) [Example 167, N-(4-((dimethylamino)(3-fluorophenyl)methyl)cyclohexyl)-2-(1-tosylpyrrolidin-3-yloxy)acetamide] was tested, and the inhibition at 1 µM (human μ opiate receptor) was 82% and the inhibition at 10 µM [1] was 86%.
